Tests used:
rCYP1A2 = molecular target: T1, rCYP1A2 (Homo sapiens, UniProt P05177); assay: Metabolic stability / reaction phenotyping with recombinant human CYP1A2
T1 sequence (P05177 1-516): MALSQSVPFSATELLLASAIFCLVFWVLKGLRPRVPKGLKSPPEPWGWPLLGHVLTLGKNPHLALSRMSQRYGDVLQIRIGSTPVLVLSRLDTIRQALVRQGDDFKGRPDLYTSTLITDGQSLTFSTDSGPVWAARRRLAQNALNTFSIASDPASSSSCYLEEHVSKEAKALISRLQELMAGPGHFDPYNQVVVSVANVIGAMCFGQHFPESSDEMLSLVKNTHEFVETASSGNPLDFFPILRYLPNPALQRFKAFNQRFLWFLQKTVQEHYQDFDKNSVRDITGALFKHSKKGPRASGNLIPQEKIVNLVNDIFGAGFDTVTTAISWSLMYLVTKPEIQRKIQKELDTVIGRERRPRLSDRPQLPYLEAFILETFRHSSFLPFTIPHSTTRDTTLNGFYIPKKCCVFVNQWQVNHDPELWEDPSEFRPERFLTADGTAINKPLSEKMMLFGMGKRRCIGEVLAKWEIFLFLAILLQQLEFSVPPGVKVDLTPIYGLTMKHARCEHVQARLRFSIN

rCYP2C8 = molecular target: T2, rCYP2C8 (Homo sapiens, UniProt P10632); assay: Metabolic stability / reaction phenotyping with recombinant human CYP2C8; conditions: 1 µM test compound; 100 pmol/mL; 30 min
T2 sequence (P10632 1-490): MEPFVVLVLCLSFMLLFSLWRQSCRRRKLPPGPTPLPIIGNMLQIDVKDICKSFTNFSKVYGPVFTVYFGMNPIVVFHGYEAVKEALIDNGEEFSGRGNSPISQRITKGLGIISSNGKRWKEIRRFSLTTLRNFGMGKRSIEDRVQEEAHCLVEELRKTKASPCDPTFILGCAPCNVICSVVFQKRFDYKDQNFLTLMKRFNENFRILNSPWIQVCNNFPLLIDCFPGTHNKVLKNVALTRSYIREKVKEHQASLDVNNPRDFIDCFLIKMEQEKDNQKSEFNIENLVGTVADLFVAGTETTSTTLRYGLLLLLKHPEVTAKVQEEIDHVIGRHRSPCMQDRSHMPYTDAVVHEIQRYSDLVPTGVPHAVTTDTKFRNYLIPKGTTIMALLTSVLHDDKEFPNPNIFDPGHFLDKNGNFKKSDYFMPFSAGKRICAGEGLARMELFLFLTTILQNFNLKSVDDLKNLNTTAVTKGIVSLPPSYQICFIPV

[1] = Metabolic stability, incubation with human liver cytosol; format: in vitro ADME; conditions: 1 µM test compound, 1 mg/mL protein
CYP3A4 [2] = molecular target: T3, CYP3A4 (Homo sapiens, UniProt P08684); assay: biochemical
T3 sequence (P08684 2-503): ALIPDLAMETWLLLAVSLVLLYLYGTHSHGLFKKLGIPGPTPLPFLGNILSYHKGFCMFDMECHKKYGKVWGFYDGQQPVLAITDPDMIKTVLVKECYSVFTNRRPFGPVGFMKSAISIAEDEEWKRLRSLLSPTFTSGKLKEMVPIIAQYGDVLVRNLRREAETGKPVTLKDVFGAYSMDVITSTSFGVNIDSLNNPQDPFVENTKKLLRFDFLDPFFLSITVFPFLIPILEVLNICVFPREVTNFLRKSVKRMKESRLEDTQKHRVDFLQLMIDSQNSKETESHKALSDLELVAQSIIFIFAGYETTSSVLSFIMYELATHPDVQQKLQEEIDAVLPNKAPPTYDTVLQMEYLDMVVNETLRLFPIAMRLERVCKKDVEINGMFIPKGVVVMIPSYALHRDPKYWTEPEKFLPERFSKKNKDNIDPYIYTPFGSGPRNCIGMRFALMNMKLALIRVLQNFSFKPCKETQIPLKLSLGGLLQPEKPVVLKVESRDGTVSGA

CYP2C9 = CYP2C9 (Homo sapiens, UniProt P11712); assay: CYP inhibition in human liver microsomes, CYP2C9
Chain of CYP2C9 (P11712 whole entry): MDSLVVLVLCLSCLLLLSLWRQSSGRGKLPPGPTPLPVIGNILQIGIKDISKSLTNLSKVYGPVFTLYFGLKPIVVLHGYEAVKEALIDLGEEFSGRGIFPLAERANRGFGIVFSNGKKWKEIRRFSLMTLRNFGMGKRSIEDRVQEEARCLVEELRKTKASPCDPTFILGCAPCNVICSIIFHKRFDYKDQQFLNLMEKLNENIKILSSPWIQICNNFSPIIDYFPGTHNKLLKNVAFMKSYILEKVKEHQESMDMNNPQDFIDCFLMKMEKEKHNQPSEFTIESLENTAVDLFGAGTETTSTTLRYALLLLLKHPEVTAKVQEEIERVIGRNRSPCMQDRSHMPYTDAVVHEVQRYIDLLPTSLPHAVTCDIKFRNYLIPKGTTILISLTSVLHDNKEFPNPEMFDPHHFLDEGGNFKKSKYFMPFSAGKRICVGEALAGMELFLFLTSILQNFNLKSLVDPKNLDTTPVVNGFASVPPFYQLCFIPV

CYP3A4 [3] = molecular target: T3, CYP3A4; assay: in vitro; conditions: microsomes, pH 7.4
rCYP2C19 = rCYP2C19 (Homo sapiens, UniProt P33261); assay: Metabolic stability / reaction phenotyping with recombinant human CYP2C19
Chain of rCYP2C19 (P33261 whole entry): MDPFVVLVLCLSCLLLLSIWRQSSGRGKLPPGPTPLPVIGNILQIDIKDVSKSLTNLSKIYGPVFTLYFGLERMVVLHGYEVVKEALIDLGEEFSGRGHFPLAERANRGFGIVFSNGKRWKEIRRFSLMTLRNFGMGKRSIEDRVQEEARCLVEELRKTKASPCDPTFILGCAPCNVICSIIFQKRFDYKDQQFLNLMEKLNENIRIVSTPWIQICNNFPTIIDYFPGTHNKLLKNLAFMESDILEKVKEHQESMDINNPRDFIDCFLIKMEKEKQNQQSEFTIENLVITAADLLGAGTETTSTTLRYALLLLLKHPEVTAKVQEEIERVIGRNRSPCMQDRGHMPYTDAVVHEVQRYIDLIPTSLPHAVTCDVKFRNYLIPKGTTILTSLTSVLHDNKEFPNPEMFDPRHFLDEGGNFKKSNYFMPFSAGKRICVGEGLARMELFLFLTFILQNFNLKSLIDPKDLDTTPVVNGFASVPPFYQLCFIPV

CYP1A2 = molecular target: T4, CYP1A2 (Homo sapiens, UniProt P05177); assay: CYP inhibition in human liver microsomes, CYP1A2
T4 sequence (P05177 1-516): T1 sequence (P05177 1-516)

CYP3A4 [4] = molecular target: T3, CYP3A4; assay: in vitro; conditions: microsomes, pH 7.4, % Inhibition of Control Activity CYP3A4 (substrate, testosterone)
rCYP2D6 = rCYP2D6 (Homo sapiens, UniProt P10635); assay: Metabolic stability / reaction phenotyping with recombinant human CYP2D6
Chain of rCYP2D6 (P10635 whole entry): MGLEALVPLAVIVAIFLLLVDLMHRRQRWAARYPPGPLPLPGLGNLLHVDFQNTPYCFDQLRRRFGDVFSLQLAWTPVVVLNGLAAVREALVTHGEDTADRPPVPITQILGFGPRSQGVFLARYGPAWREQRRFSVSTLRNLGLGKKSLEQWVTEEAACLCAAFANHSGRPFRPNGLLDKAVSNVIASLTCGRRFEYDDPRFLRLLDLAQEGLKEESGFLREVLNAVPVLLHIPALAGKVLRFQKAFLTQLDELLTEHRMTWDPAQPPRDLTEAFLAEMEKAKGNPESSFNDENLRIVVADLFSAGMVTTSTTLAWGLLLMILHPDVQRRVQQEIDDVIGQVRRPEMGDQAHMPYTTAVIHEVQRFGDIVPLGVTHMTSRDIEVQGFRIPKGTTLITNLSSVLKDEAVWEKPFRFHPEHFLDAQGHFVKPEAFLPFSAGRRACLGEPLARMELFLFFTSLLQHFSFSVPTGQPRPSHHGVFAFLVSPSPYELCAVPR

CYP2C19 = CYP2C19 (Homo sapiens, UniProt P33261); assay: CYP inhibition in human liver microsomes, CYP2C19
Chain of CYP2C19 (P33261 whole entry): as the sequence (P33261 whole entry) above

CYP2C8 = molecular target: T5, CYP2C8 (Homo sapiens, UniProt P10632); assay: CYP inhibition in human liver microsomes, CYP2C8
T5 sequence (P10632 1-490): T2 sequence (P10632 1-490)

[5] = Metabolic stability, incubation with human liver microsomes; conditions: 1 µM test compound, 0.5 mg/mL protein
rCYP3A4 = rCYP3A4 (Homo sapiens, UniProt P08684)
Chain of rCYP3A4 (P08684 whole entry): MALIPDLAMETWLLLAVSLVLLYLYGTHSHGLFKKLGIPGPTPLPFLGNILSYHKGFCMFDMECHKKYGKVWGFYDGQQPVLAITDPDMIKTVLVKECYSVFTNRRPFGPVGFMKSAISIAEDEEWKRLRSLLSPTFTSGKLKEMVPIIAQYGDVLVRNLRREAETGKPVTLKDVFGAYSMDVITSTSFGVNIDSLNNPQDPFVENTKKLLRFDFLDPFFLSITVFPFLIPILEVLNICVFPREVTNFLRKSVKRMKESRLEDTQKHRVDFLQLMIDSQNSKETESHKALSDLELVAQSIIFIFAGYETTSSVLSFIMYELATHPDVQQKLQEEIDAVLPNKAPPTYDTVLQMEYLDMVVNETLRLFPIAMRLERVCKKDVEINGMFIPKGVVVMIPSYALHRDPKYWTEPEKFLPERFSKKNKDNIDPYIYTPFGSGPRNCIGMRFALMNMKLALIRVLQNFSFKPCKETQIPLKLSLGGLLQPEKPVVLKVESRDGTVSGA

rCYP2C9 = rCYP2C9 (Homo sapiens, UniProt P11712); assay: Metabolic stability / reaction phenotyping with recombinant human CYP2C9
Chain of rCYP2C9 (P11712 whole entry): as the sequence (P11712 whole entry) above

[6] = cited from earlier work
[7] = 1 µM test compound, 100 pmol/mL, 30 min
[8] = human, recombinant human CYP1A2, 1 µM, pH 7.4
[9] = human, recombinant human CYP2C19, 1 µM, pH 7.4
[10] = human, recombinant human CYP2D6, 1 µM, pH 7.4
[11] = human, human liver microsomes, pH 7.4, probe paclitaxel
[12] = human, recombinant enzyme, pH 7.4
[13] = human, recombinant human CYP2C9, 1 µM, pH 7.4

Structure (SMILES): CSc1nc2cc(Cl)c(Oc3cccc(Cl)c3Cl)cc2[nH]1 [Triclabendazole, reference compound]
- % Metabolized at 30 min Incubation with Human Liver Fractions/Enzymes rCYP1A2 (rCYP1A2; [7]): 97.14%
- % Contribution of CYP Enzymes (fmCYP) in Metabolism, CYP1A2 (rCYP1A2; [8]): 53.74%
- Predicted Microsomal Clint, CYP1A2 (rCYP1A2; [8]): 61.600 µL/min/mg Protein
- rCYP Clint, CYP1A2 (rCYP1A2; [8]): 1.185 µL/min/pmol
- % Metabolized at 30 min Incubation with Human Liver Fractions/Enzymes rCYP2C8 (rCYP2C8): 0.00%
- % Metabolized at 30 min Incubation with Human Liver Fractions/Enzymes Cytosol [1]: 12.40%
- IC50 (CYP3A4 [2]): 15100 nM
- IC50 (CYP2C9): 1170 nM
- inhibition at 2 µM (CYP3A4 [3]): < 0%
- inhibition at 10 µM (CYP3A4 [3]): < 0%
- % Metabolized at 30 min Incubation with Human Liver Fractions/Enzymes rCYP2C19 (rCYP2C19; [7]): 94.55%
- % Contribution of CYP Enzymes (fmCYP) in Metabolism, CYP2C19 (rCYP2C19; [9]): 16.07%
- Predicted Microsomal Clint, CYP2C19 (rCYP2C19; [9]): 18.415 µL/min/mg Protein
- rCYP Clint, CYP2C19 (rCYP2C19; [9]): 0.969 µL/min/pmol
- IC50 (CYP1A2): 1070 nM
- inhibition at 2 µM (CYP3A4 [4]): 13.5%
- inhibition at 10 µM (CYP3A4 [4]): 52.9%
- % Metabolized at 30 min Incubation with Human Liver Fractions/Enzymes rCYP2D6 (rCYP2D6; [7]): 73.66%
- % Contribution of CYP Enzymes (fmCYP) in Metabolism, CYP2D6 (rCYP2D6; [10]): 3.88%
- Predicted Microsomal Clint, CYP2D6 (rCYP2D6; [10]): 4.448 µL/min/mg Protein
- rCYP Clint, CYP2D6 (rCYP2D6; [10]): 0.445 µL/min/pmol
- IC50 (CYP2C19): 250 nM
- IC50 (CYP2C8; IC50 CYP 2C8, HLM): 3310 nM
- inhibition at 2 µM (CYP2C8; [11]): 7.09%
- inhibition at 10 µM (CYP2C8; [11]): 79.7%
- % Metabolized at 30 min Incubation with Human Liver Fractions/Enzymes HLM [5]: 51.68%
- % Metabolized at 30 min Incubation with Human Liver Fractions/Enzymes rCYP3A4 (rCYP3A4; [7]): 11.70%
- Predicted Microsomal Clint, CYP3A4 (rCYP3A4; human, pH 7.4): 4.604 µL/min/mg Protein
- % Contribution of CYP Enzymes (fmCYP) in Metabolism, CYP3A4 (rCYP3A4; [12]): 4.02%
- rCYP Clint, CYP3A4 (rCYP3A4; [12]): 0.041 µL/min/pmol
- % Metabolized at 30 min Incubation with Human Liver Fractions/Enzymes rCYP2C9 (rCYP2C9; [7]): 55.00%
- % Contribution of CYP Enzymes (fmCYP) in Metabolism, CYP2C9 (rCYP2C9; [13]): 22.29%
- Predicted Microsomal Clint, CYP2C9 (rCYP2C9; [13]): 25.548 µL/min/mg Protein
- rCYP Clint, CYP2C9 (rCYP2C9; [13]): 0.266 µL/min/pmol
- Cmax ([6]; human patients at therapeutic doses of triclabendazole): 1160 nM
- peak concentration ([6]; humans, standard dose of triclabendazole of 10 mg/kg): 1.16 µM
